Source: ChEMBL document CHEMBL1201862, “PubChem BioAssay data set” (2004)
Counter-ions that a name gives are not always drawn.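 The compound was tested at five concentrations on cells cultured in 96-well plates, with a 48-hour exposure period. Here, GI50 denotes the concentration required for 50% inhibition of growth.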 Activity calls are given as the source filed them. Rule as the data show it: active = GI50 up to about 1.1 µM and inactive = higher.

What was measured:
Assay in all cases: DTP human tumour cell line panel, 48 h
UACC-62 = test system: UACC-62
CCRF-CEM = test system: CCRF-CEM
A549 = test system: A549
SK-MEL-2 = test system: SK-MEL-2
SF-295 = test system: SF-295
SNB-19 = test system: SNB-19
KM12 = test system: KM12
TK-10 = test system: TK-10
RXF 393 = test system: RXF 393
SK-MEL-28 = test system: SK-MEL-28
NCI-H460 = test system: NCI-H460
HL-60 = test system: HL-60
SF-539 = test system: SF-539
EKVX = test system: EKVX
NCI-H23 = test system: NCI-H23
SN12C = test system: SN12C

Row | Structure (SMILES) | GI50 (UACC-62) | GI50 (CCRF-CEM) | GI50 (A549) | GI50 (SK-MEL-2) | GI50 (SF-295) | GI50 (SNB-19) | GI50 (KM12) | GI50 (TK-10) | GI50 (RXF 393) | GI50 (SK-MEL-28) | GI50 (NCI-H460) | GI50 (HL-60) | GI50 (SF-539) | GI50 (EKVX) | GI50 (NCI-H23) | GI50 (SN12C)
1 | COc1ccc2c(c1)C(O)(C(F)(F)F)c1cc(C(=O)C(F)(F)F)c3ccccc3c1N2 (centres undefined) | 4.46 µM (inactive) | 7.94 µM (inactive) | 11.6 µM (inactive) | 12.2 µM (inactive) | 13.2 µM (inactive) | 16 µM (inactive) | 4.35 µM (inactive) | 13.5 µM (inactive) | 11.5 µM (inactive) | 14.6 µM (inactive) | 8.89 µM (inactive) | 14.7 µM (inactive) | 16.3 µM (inactive) | 18.3 µM (inactive) | 12.4 µM (inactive) | –
2 | COC(=O)C1=CO[C@@H](C)[C@@H]2Cn3ccc4c5ccccc5nc-4c3C[C@H]12 [ALSTONINE HYDROCHLORIDE] | > 100 µM (inactive) | > 100 µM (inactive) | > 100 µM (inactive) | > 100 µM (inactive) | > 100 µM (inactive) | > 100 µM (inactive) | – | > 100 µM (inactive) | > 100 µM (inactive) | > 100 µM (inactive) | > 100 µM (inactive) | – | > 100 µM (inactive) | > 100 µM (inactive) | > 100 µM (inactive) | > 100 µM (inactive)
3 | COc1ccc(C(=O)CC2=Nc3nnc(CCCCCCCc4nnc5n4C(=O)C(CC(=O)c4ccc(OC)cc4)=N5)n3C2=O)cc1 | > 100 µM (inactive) | > 100 µM (inactive) | > 100 µM (inactive) | – | > 100 µM (inactive) | > 100 µM (inactive) | > 100 µM (inactive) | > 100 µM (inactive) | > 100 µM (inactive) | > 100 µM (inactive) | > 100 µM (inactive) | > 100 µM (inactive) | > 100 µM (inactive) | > 100 µM (inactive) | > 100 µM (inactive) | > 100 µM (inactive)
4 | O=C(Nc1ccccc1[N+](=O)[O-])/C(=N/Nc1cccc(Cl)c1)c1c(O)c2ccccc2oc1=O | 42.2 µM (inactive) | 14.4 µM (inactive) | > 100 µM (inactive) | > 100 µM (inactive) | > 100 µM (inactive) | > 100 µM (inactive) | > 100 µM (inactive) | > 100 µM (inactive) | > 100 µM (inactive) | > 100 µM (inactive) | 38.5 µM (inactive) | > 10 µM (inactive) | > 100 µM (inactive) | > 100 µM (inactive) | 24.9 µM (inactive) | –
5 | CC/C(=N\NS(=O)(=O)c1ccccc1)c1ccccc1 | > 100 µM (inactive) | > 100 µM (inactive) | > 100 µM (inactive) | > 100 µM (inactive) | > 100 µM (inactive) | – | > 100 µM (inactive) | > 100 µM (inactive) | > 100 µM (inactive) | > 100 µM (inactive) | > 100 µM (inactive) | > 100 µM (inactive) | > 100 µM (inactive) | > 100 µM (inactive) | > 100 µM (inactive) | > 100 µM (inactive)
6 | O=C1CSc2ccncc2N1 | > 100 µM (inactive) | > 100 µM (inactive) | > 100 µM (inactive) | > 100 µM (inactive) | > 100 µM (inactive) | 8.93 µM (inactive) | – | > 100 µM (inactive) | > 100 µM (inactive) | > 100 µM (inactive) | > 100 µM (inactive) | > 100 µM (inactive) | > 100 µM (inactive) | > 100 µM (inactive) | > 100 µM (inactive) | > 100 µM (inactive)
7 | COC1CC(OC)C(O)C(CO)O1 (centres undefined) | > 100 µM (inactive) | > 100 µM (inactive) | > 100 µM (inactive) | > 100 µM (inactive) | > 100 µM (inactive) | – | > 100 µM (inactive) | > 100 µM (inactive) | > 100 µM (inactive) | > 100 µM (inactive) | > 100 µM (inactive) | > 100 µM (inactive) | > 100 µM (inactive) | > 100 µM (inactive) | > 100 µM (inactive) | > 100 µM (inactive)
8 | COc1nc(NC2OC(COC(C)=O)C(OC(C)=O)C(OC(C)=O)C2OC(C)=O)c2c(OC(C)=O)c(C)c(=O)oc2n1 (centres undefined) | > 100 µM (inactive) | > 100 µM (inactive) | > 100 µM (inactive) | > 100 µM (inactive) | > 100 µM (inactive) | > 100 µM (inactive) | > 100 µM (inactive) | > 100 µM (inactive) | > 100 µM (inactive) | – | 1.67 µM (inactive) | > 100 µM (inactive) | > 100 µM (inactive) | > 100 µM (inactive) | > 100 µM (inactive) | > 100 µM (inactive)
9 | O=C(Cc1c(C(=O)Nc2ccccc2)sc(C(=O)Nc2ccccc2)c1CC(=O)Nc1ccccc1)Nc1ccccc1 | > 100 µM (inactive) | > 100 µM (inactive) | > 100 µM (inactive) | – | > 100 µM (inactive) | > 100 µM (inactive) | > 100 µM (inactive) | > 100 µM (inactive) | > 100 µM (inactive) | 0.719 µM (active) | > 100 µM (inactive) | > 100 µM (inactive) | > 100 µM (inactive) | > 100 µM (inactive) | > 100 µM (inactive) | > 100 µM (inactive)
10 | Nc1nc(NCCO)c(N=O)c(=O)[nH]1 | > 100 µM (inactive) | > 100 µM (inactive) | > 100 µM (inactive) | > 100 µM (inactive) | > 100 µM (inactive) | – | > 100 µM (inactive) | > 100 µM (inactive) | > 100 µM (inactive) | > 100 µM (inactive) | > 100 µM (inactive) | > 100 µM (inactive) | > 100 µM (inactive) | > 100 µM (inactive) | – | > 100 µM (inactive)
11 | COc1cc2[nH]c3c(c2cc1OC)CCN[C@]31CC[C@]2(CC3c4c(cc(OC)c(O)c42)CCN3C)C[C@H]1OC (some centres undefined) | 25 µM (inactive) | 10.8 µM (inactive) | 25.1 µM (inactive) | – | 20.5 µM (inactive) | 34.8 µM (inactive) | 17.7 µM (inactive) | 21.6 µM (inactive) | 3.04 µM (inactive) | 20.2 µM (inactive) | 23.8 µM (inactive) | 11.6 µM (inactive) | 17.1 µM (inactive) | 55.7 µM (inactive) | 65.5 µM (inactive) | 21 µM (inactive)
12 | O=C1Cc2c([nH]c3ccccc23)-c2cc(Br)ccc2N1 | – | > 100 µM (inactive) | > 100 µM (inactive) | > 100 µM (inactive) | > 100 µM (inactive) | > 100 µM (inactive) | > 100 µM (inactive) | > 100 µM (inactive) | > 100 µM (inactive) | > 100 µM (inactive) | > 100 µM (inactive) | > 100 µM (inactive) | > 100 µM (inactive) | > 100 µM (inactive) | > 100 µM (inactive) | > 100 µM (inactive)
13 | COC(=O)OCC1OC(N2C(=O)NC(=O)C(I)C2N=[N+]=[N-])CC1OC(=O)OC (centres undefined) | > 100 µM (inactive) | > 100 µM (inactive) | > 100 µM (inactive) | – | > 100 µM (inactive) | > 100 µM (inactive) | > 100 µM (inactive) | > 100 µM (inactive) | > 100 µM (inactive) | > 100 µM (inactive) | > 100 µM (inactive) | > 100 µM (inactive) | > 100 µM (inactive) | – | > 100 µM (inactive) | > 100 µM (inactive)
14 | CCOC(=O)c1sc2c(C(=O)OCC)n3cc(C)cc(C)c3c2c1O | > 100 µM (inactive) | > 100 µM (inactive) | > 100 µM (inactive) | > 100 µM (inactive) | > 100 µM (inactive) | > 100 µM (inactive) | > 100 µM (inactive) | > 100 µM (inactive) | > 100 µM (inactive) | > 100 µM (inactive) | > 100 µM (inactive) | – | > 100 µM (inactive) | 29.5 µM (inactive) | > 100 µM (inactive) | > 100 µM (inactive)
15 | O=c1[nH]c(=O)n(C2CC(O)C(CO)O2)cc1C(F)(C(F)(F)F)C(F)(F)F (centres undefined) | > 100 µM (inactive) | > 100 µM (inactive) | – | > 100 µM (inactive) | > 100 µM (inactive) | > 100 µM (inactive) | > 100 µM (inactive) | > 100 µM (inactive) | > 100 µM (inactive) | > 100 µM (inactive) | > 100 µM (inactive) | > 100 µM (inactive) | > 100 µM (inactive) | > 100 µM (inactive) | > 100 µM (inactive) | > 100 µM (inactive)
16 | CC(C)(C)c1cc(C(O)(C(F)(F)F)C(F)(F)F)c2c(c1)C(C(F)(F)F)(C(F)(F)F)OC(C(C)(C)C)N2 (centres undefined) | 3.56 µM (inactive) | – | 3.28 µM (inactive) | 2.55 µM (inactive) | 2.63 µM (inactive) | 5.79 µM (inactive) | 3.65 µM (inactive) | 3.27 µM (inactive) | 0.382 µM (active) | 5.16 µM (inactive) | 3.27 µM (inactive) | – | 2.55 µM (inactive) | 4.22 µM (inactive) | 2.64 µM (inactive) | 3.3 µM (inactive)
17 | CCCNC(=S)NNC(=O)CSc1nc(-c2ccccc2)c(-c2ccccc2)[nH]1 | > 100 µM (inactive) | 38.1 µM (inactive) | 75.5 µM (inactive) | > 100 µM (inactive) | 54.6 µM (inactive) | 88.1 µM (inactive) | 33 µM (inactive) | 70.5 µM (inactive) | – | > 100 µM (inactive) | 39.9 µM (inactive) | 23.2 µM (inactive) | 90.6 µM (inactive) | 37 µM (inactive) | 76 µM (inactive) | 74 µM (inactive)
18 | Cn1c(=O)c2[nH]cnc2n(CC(=O)O)c1=O | > 100 µM (inactive) | > 100 µM (inactive) | > 100 µM (inactive) | > 100 µM (inactive) | – | > 100 µM (inactive) | > 100 µM (inactive) | > 100 µM (inactive) | – | > 100 µM (inactive) | > 100 µM (inactive) | – | > 100 µM (inactive) | > 100 µM (inactive) | > 100 µM (inactive) | > 100 µM (inactive)
